According to patent US20260274799A1, “HETEROCYCLIC DERIVATIVES, COMPOSITIONS AND USES THEREOF” (DANATLAS PHARMACEUTICALS CO., LTD., priority 2023, published 2026):
Like-named read-outs stand apart in the source and are kept apart here.

Target: T1, PPARγ-LBD (UniProt ID: P37231-2) (Homo sapiens, UniProt P37231)
T1 construct: PPARγ-LBD (UniProt ID: P37231-2) was expressed and purified in insect system; made in house
T1 sequence (P37231 238-503 limits assumed): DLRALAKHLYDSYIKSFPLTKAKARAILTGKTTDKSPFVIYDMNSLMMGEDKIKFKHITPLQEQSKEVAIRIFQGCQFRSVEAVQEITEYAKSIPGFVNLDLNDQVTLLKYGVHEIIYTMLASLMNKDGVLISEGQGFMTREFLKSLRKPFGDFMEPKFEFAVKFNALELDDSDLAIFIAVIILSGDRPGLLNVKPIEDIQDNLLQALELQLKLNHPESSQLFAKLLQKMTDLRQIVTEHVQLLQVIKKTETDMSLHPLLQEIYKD
Assay: PPARγ-SMRT recruitment assay (TR-FRET)
Assay type: biochemical
Conditions: for Emax: 1 h, read-out: Top %; for EC50: TR-FRET, SMRT peptide recruitment to PPARγ-LBD, 120 min pre-incubation
Experimental: PPARγ TR-FRET assay was initiated to evaluate potential activatory effect of the compounds of the present disclosure for SMRT recruitment to PPARγ protein. PPARγ-LBD (UniProt ID: P37231-2) was expressed and purified in insect system and stored at −80° C. in aliquots. Biotinylated SMRT peptide was synthesized (Biotin-[…]). 5 μL protein solution mixture consisting of 10 nM PPARγ-LBD and 2 nM Anti-His Eu (Cisbio, 61HISKLA) in assay buffer (25 mM HEPES pH7.4, 25 mM KCl, 1 mM EDTA, 0.01% BSA, 0.01% Tween-20, 1 mM TCEP) was added to 384-well plates containing duplicate 10-point dose response titration of compounds in 5 μL assay buffer (1% f.c. DMSO(v/v)). After 120 min pre-incubation at room temperature, 5 μL peptide solution mixture consisting of 50 nM Biotin-SMRT peptide and 25 nM Streptavidin-XL665 (Cisbio, 610SAXLA) added to plates. Plates were incubated for 60 min. and read in CLARIOstar Plus plate reader with Ex/Em 620 nm/[…]. Average TR-FRET ratio of high control (Wells with 10 uM control compound) was calculated as High Control (HC). Average TR-FRET ratio of low control (Wells with 1% DMSO) was calculated as Low control (LC). For one compound, top % is the max value of % Activation.
EC50 values were determined by fitting the data to the standard 4 parameters with Hill Slope using GraphPad Prism software. […] ND: No Determine.

[1] = max value of % Activation, high control 10 uM control compound, low control 1% DMSO

Emax [1] [%] | EC50 [nM] | SMILES | Emax [%]
237 | < 100 | COc1nccnc1C#Cc1c(F)cc2[nH]c(-c3cc(C#N)ccc3S(C)(=O)=O)cc(=O)c2c1F [Example 43, 3-(5,7-Difluoro-6-((3-methoxypyrazin-2-yl)ethynyl)-4-oxo-1,4-dihydroquinolin-2-yl)-4-(methylsulfonyl)benzonitrile] | –
174 | < 100 | CCS(=O)(=O)c1ccc(C#N)cc1-c1cc(=O)c2c(F)c(C#CC3COC3)c(F)cc2[nH]1 [Example 46, 3-(5,7-Difluoro-6-(oxetan-3-ylethynyl)-4-oxo-1,4-dihydroquinolin-2-yl)-4-(ethylsulfonyl)benzonitrile] | –
613 | < 100 | Cc1ccccc1C#Cc1c(F)cc2[nH]c(-c3cc(C#N)ccc3S(C)(=O)=O)cc(=O)c2c1F [Example 17, 3-(5,7-Difluoro-4-oxo-6-(o-tolylethynyl)-1,4-dihydroquinolin-2-yl)-4-(methylsulfonyl)benzonitrile] | –
316 | < 100 | CC(C)(F)C#Cc1c(F)cc2[nH]c(-c3cc(C#N)ccc3S(C)(=O)=O)cc(=O)c2c1F [Example 23, 3-(5,7-Difluoro-6-(3-fluoro-3-methylbut-1-yn-1-yl)-4-oxo-1,4-dihydroquinolin-2-yl)-4-(methylsulfonyl)benzonitrile] | –
249 | < 100 | CC1(C#Cc2c(F)cc3[nH]c(-c4cc(C#N)ccc4S(C)(=O)=O)cc(=O)c3c2F)COC1 [Example 45, 3-(5,7-Difluoro-6-((3-methyloxetan-3-yl)ethynyl)-4-oxo-1,4-dihydroquinolin-2-yl)-4-(methylsulfonyl)benzonitrile] | –
– | > 1000 | COc1cc(-c2cc(C#N)ccc2S(C)(=O)=O)nc2cc(F)c(C#CC(C)(C)F)c(F)c12 [Example 55, 3-(5,7-Difluoro-6-(3-fluoro-3-methylbut-1-yn-1-yl)-4-methoxyquinolin-2-yl)-4-(methylsulfonyl)benzonitrile] | –
– | 100 to 1000 | Cc1ccc(S(C)(=O)=O)c(-c2cc(=O)c3c(F)c(CCC4CCOCC4)c(F)cc3[nH]2)c1 [Example 56, 5,7-Difluoro-2-(5-methyl-2-(methylsulfonyl)phenyl)-6-(2-(tetrahydro-2H-pyran-4-yl)ethyl)quinolin-4(1H)-one] | –
231 | < 100 | CS(=O)(=O)c1ccc(C#N)cc1-c1cc(=O)c2c(F)c(C#Cc3ccccc3C#N)c(F)cc2[nH]1 [Example 42, 3-(6-((2-Cyanophenyl)ethynyl)-5,7-difluoro-4-oxo-1,4-dihydroquinolin-2-yl)-4-(methylsulfonyl)benzonitrile] | –
367 | < 100 | C[C@H](O)C#Cc1c(F)cc2[nH]c(-c3cc(C#N)ccc3S(C)(=O)=O)cc(=O)c2c1F [Example 5, (S)-3-(5,7-Difluoro-6-(3-hydroxybut-1-yn-1-yl)-4-oxo-1,4-dihydroquinolin-2-yl)-4-(methylsulfonyl)benzonitrile] | –
– | < 100 | CS(=O)(=O)c1ccc(C#N)cc1-c1cc(=O)c2c(F)c(OCc3ccccc3)c(F)cc2[nH]1 [Example 18, 3-(6-(Benzyloxy)-5,7-difluoro-4-oxo-1,4-dihydroquinolin-2-yl)-4-(methylsulfonyl)benzonitrile] | –
– | < 100 | COCCC#Cc1c(F)cc2[nH]c(-c3cc(C#N)ccc3S(C)(=O)=O)cc(=O)c2c1F [Example 49, 3-(5,7-Difluoro-6-(4-methoxybut-1-yn-1-yl)-4-oxo-1,4-dihydroquinolin-2-yl)-4-(methylsulfonyl)benzonitrile] | –
237 | < 100 | CS(=O)(=O)c1ccc(C#N)cc1-c1cc(=O)c2c(F)c(C#Cc3cnc4cccnn34)c(F)cc2[nH]1 [Example 40, 3-(5,7-Difluoro-6-(imidazo[1,2-h]pyridazin-3-ylethynyl)-4-oxo-1,4-dihydroquinolin-2-yl)-4-(methylsulfonyl)benzonitrile] | –
181 | < 100 | Cn1cc(C#Cc2c(F)cc3[nH]c(-c4cc(C#N)ccc4S(C)(=O)=O)cc(=O)c3c2F)cn1 [Example 12, 3-(5,7-Difluoro-6-((1-methyl-1H-pyrazol-4-yl)ethynyl)-4-oxo-1,4-dihydroquinolin-2-yl)-4-(methylsulfonyl)benzonitrile] | –
181 | < 100 | Cc1cccc(C#Cc2c(F)cc3[nH]c(-c4cc(C#N)ccc4S(C)(=O)=O)cc(=O)c3c2F)n1 [Example 31, 3-(5,7-Difluoro-6-((6-methylpyridin-2-yl)ethynyl)-4-oxo-1,4-dihydroquinolin-2-yl)-4-(methylsulfonyl)benzonitrile] | –
435 | < 100 | CS(=O)(=O)c1ccc(C#N)cc1-c1cc(=O)c2c(F)c(C#Cc3ccccc3)c(F)cc2[nH]1 [Example 11, 3-(5,7-Difluoro-4-oxo-6-(phenylethynyl)-1,4-dihydroquinolin-2-yl)-4-(methylsulfonyl)benzonitrile] | –
311 | < 100 | C#Cc1c(F)cc2[nH]c(-c3cc(C#N)ccc3S(C)(=O)=O)cc(=O)c2c1F [Example 2, 3-(6-Ethynyl-5,7-difluoro-4-oxo-1,4-dihydroquinolin-2-yl)-4-(methylsulfonyl)benzonitrile] | –
210 | < 100 | CCC#Cc1c(F)cc2[nH]c(-c3cc(C#N)ccc3S(C)(=O)=O)cc(=O)c2c1F [Example 20, 3-(6-(But-1-yn-1-yl)-5,7-difluoro-4-oxo-1,4-dihydroquinolin-2-yl)-4-(methylsulfonyl)benzonitrile] | –
266 | < 100 | CS(=O)(=O)c1ccc(C#N)cc1-c1cc(=O)c2c(F)c(C#CCCO)c(F)cc2[nH]1 [Example 6, 3-(5,7-Difluoro-6-(4-hydroxybut-1-yn-1-yl)-4-oxo-1,4-dihydroquinolin-2-yl)-4-(methylsulfonyl)benzonitrile] | –
– | < 100 | COc1cccnc1C#Cc1c(F)cc2[nH]c(-c3cc(C#N)ccc3S(C)(=O)=O)cc(=O)c2c1F [Example 38, 3-(5,7-Difluoro-6-((3-methoxypyridin-2-yl)ethynyl)-4-oxo-1,4-dihydroquinolin-2-yl)-4-(methylsulfonyl)benzonitrile] | –
343 | < 100 | Cc1cncc(C)c1C#Cc1c(F)cc2[nH]c(-c3cc(C#N)ccc3S(C)(=O)=O)cc(=O)c2c1F [Example 32, 3-(6-((3,5-Dimethylpyridin-4-yl)ethynyl)-5,7-difluoro-4-oxo-1,4-dihydroquinolin-2-yl)-4-(methylsulfonyl)benzonitrile] | –
650 | < 100 | CS(=O)(=O)c1ccc(C#N)cc1-c1cc(=O)c2c(F)c(/C=C/c3ccccc3)c(F)cc2[nH]1 [Example 53, (E)-3-(5,7-Difluoro-4-oxo-6-styryl-1,4-dihydroquinolin-2-yl)-4-(methylsulfonyl)benzonitrile] | –
208 | < 100 | CC(C)(N)C#Cc1c(F)cc2[nH]c(-c3cc(C#N)ccc3S(C)(=O)=O)cc(=O)c2c1F [Example 8, 3-(6-(3-Amino-3-methylbut-1-yn-1-yl)-5,7-difluoro-4-oxo-1,4-dihydroquinolin-2-yl)-4-(methylsulfonyl)benzonitrile] | –
– | < 100 | CS(=O)(=O)c1ccc(C#N)cc1-c1cc(=O)c2c(F)c(C#CC3CCOCC3)c(F)cc2[nH]1 [Example 52, 3-(5,7-Difluoro-4-oxo-6-((tetrahydro-2H-pyran-4-yl)ethynyl)-1,4-dihydroquinolin-2-yl)-4-(methylsulfonyl)benzonitrile] | –
– | < 100 | CS(=O)(=O)c1ccc(C#N)cc1-c1cc(=O)c2c(F)c(CCC3CCOCC3)c(F)cc2[nH]1 [Example 25, 3-(5,7-Difluoro-4-oxo-6-(2-(tetrahydro-2H-pyran-4-yl)ethyl)-1,4-dihydroquinolin-2-yl)-4-(methylsulfonyl)benzonitrile] | –
502 | < 100 | CS(=O)(=O)c1ccc(C#N)cc1-c1cc(=O)c2c(F)c(C#Cc3ccccc3Cl)c(F)cc2[nH]1 [Example 33, 3-(6-((2-Chlorophenyl)ethynyl)-5,7-difluoro-4-oxo-1,4-dihydroquinolin-2-yl)-4-(methylsulfonyl)benzonitrile] | –

SMILES | Emax [1] [%] | EC50 [nM] | Emax [%]
CS(=O)(=O)c1ccc(C#N)cc1-c1cc(=O)c2c(F)c(C#Cc3ccncc3OC(F)F)c(F)cc2[nH]1 [Example 47, 3-(6-((3-(Difluoromethoxy)pyridin-4-yl)ethynyl)-5,7-difluoro-4-oxo-1,4-dihydroquinolin-2-yl)-4-(methylsulfonyl)benzonitrile] | – | < 100 | 376
